These results are taken from PMC6493972, “Synthesis and Biological Evaluation of (E)-4-Hydroxy-3-methylbut-2-enyl Phosphate (HMBP) Aryloxy Triester Phosphoramidate Prodrugs as Activators of Vγ9/Vδ2 T-Cell Immune Responses” (Journal of Medicinal Chemistry, 2018).

The test system of one data set is PBMC. As to the kind of experiment: Specific cell death in PBMC cultures (ED50, viability dye). The settings on record: supplementary CSV. Format: cell-based, human. On the procedure: Figure 2 Activation of human Vγ9/Vδ2^+ T cells by HMBP ProPAgens. (a) Human peripheral blood mononuclear cells (PBMC) were incubated with media or indicated concentrations of HMB-PP or zoledronate for 18 h. TCR Vγ9/Vδ2^+ T cells were then assessed for the upregulation of cell surface markers, CD69 and CD25. Data representative of n = 5. (b) As in (a), with PBMC incubated with indicated concentrations of HMBP ProPAgens. Data representative of n = 4. (c) As in (a) and (b), with data showing titrations of each of HMB-PP, zoledronate, and HMBP ProPAgens, alongside a medium control (M). Data from n = 4–5 donors. (d) EC50, ED50, and selectivity index (SI) values for each HMBP ProPAgens. Specific cell death, for ED50 values, was calculated after adjusting for nonspecific cell death in medium controls. (e) CD69 and CD25 activation in CD3^+ CD8^+ αβ T-cells for each compound.
I. T-cell isolation, culture and activation
PBMCs were isolated from heparinised venous blood from consented healthy donors (approved by the NRES Committee West Midlands ethical board; REC reference 14/WM/1254). Blood was layered over lymphoprep© (Stem Cell Technologies) and PBMC isolated according to manufacturers instructions. The cell culture medium used throughout was RPMI-1640 media supplemented with 2 mM L-glutamine, 25 mM HEPES, 1% sodium pyruvate, 50 μg/ml penicillin/streptomycin (Invitrogen) and 10% fetal calf serum (Sigma). For activation assays, 5 x 10^5 PBMC were cultured for 20 h in the presence of medium alone or the indicated concentrations of HMB-PP (Sigma), Zoledronate (Sigma), 5a, 5b, 5c and 5d (as described above). Cultured PBMC were labelled with Zombie© aqua viability dye (Biolegend) and cells were stained for surface antigens by antibodies directed against CD3 (UCHT1; […]
(§1) (IMMU360; 1:400); Beckman Coulter, and TCR Vδ2 (123R3; 1:200); Miltenyi. […] All cells were then labelled with Zombie© aqua viability dye and CFSE+ Zombie© aqua+ cells measured. All data were acquired on an LSR II (Beckton Dickinson) and data analysed with FlowJo V10.1 (TreeStar). Tabulated data were analysed in Graphpad PRISM 7

The target of data set [1] is T1, carboxypeptidase cathepsin A (Homo sapiens, UniProt P10619).
T1 sequence (P10619 29-480): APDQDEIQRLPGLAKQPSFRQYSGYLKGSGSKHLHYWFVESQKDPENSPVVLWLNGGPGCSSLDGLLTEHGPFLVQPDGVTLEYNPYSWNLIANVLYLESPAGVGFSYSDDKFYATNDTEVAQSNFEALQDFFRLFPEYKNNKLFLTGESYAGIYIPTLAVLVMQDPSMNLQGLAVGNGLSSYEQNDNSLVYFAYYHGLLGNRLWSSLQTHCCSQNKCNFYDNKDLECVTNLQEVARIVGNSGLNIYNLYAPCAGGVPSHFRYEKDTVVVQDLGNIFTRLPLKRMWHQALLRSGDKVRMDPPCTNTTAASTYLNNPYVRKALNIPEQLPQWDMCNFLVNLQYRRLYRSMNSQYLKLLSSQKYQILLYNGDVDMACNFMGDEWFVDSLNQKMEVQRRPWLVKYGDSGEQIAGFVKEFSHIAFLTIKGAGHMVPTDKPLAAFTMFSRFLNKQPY
The experiment in a line: In vitro cathepsin A mediated degradation monitored by 31P NMR and mass spectroscopy. Format: in vitro ADME. The following applies: after 72 h. On the procedure:
In order to get an insight into the metabolism of ProPAgens 6a–d, compound 6d was incubated with the carboxypeptidase cathepsin A in vitro and the reaction was monitored with ^31P NMR. […] This may explain literature reports pursuing the phosphonates of HMBP where the −O-P- bond was replaced by a −CH2-P- one and lack of reports on the native HMBP phosphate prodrugs.[19]

The test system of the next data set is Vγ9/Vδ2 T-cells. The experiment in a line: Activation of Vγ9/Vδ2 T-cells in PBMC (upregulation of CD69 and CD25). Format: cell-based. The settings on record: human PBMC from healthy donors, 18 h, n = 4-5 donors, Figure 2d and text.
The subject of data set [2] is T24 urinary bladder carcinoma cell line. As to the kind of experiment: Specific lysis of pulsed T24 bladder carcinoma cells by expanded Vγ9/Vδ2 T cells. Format: cell-based, human. The following applies: T24 pulsed 4 h with 10 nM ProPAgens or 10 μM zoledronate, cocultured 18 h with expanded Vγ9/Vδ2 T cells. On the procedure: Next, we tested the potential for ProPAgens to sensitize the urinary bladder carcinoma cell line T24 for targeted killing by in vitro expanded Vγ9/Vδ2 T cells. Without sensitization, medium pulsed T24 cells were poorly targeted by increasing ratios of Vγ9/Vδ2 T cells, but upon pulsing for 4 h with zoledronate or ProPAgens 5a–d, T24 cells were specifically lysed (Figure 3a). […] In contrast, a 1000-fold lower concentration of each ProPAgen mediated a 2- to 4-fold increase in specific lysis of T24 over the same period (Figure 3b).
Figure 3 HMBP ProPAgens mediate the specific lysis of bladder cancer cells by Vγ9/Vδ2 T-cells. […] Specific killing of target cells was measured by amine-reactive dead cell marker staining. […] (b) As in (a) showing the mean ± SD specific killing of T24 cells at 1:10 target/effector ratio for each indicated treatment, n = 2: (∗) P < 0.05; (∗∗) P < 0.01; determined by one-way ANOVA. […]
as §1

Molecules are shown by their SMILES.

On to `C/C(=C\COP(=O)(O)OP(=O)(O)O)CO` [HMBPP, (E)-4-hydroxy-3-methyl-but-2-enyl pyrophosphate], for which the “ED50” value with PBMC was above 100 µM.

On to `C/C(=C\COP(=O)(N[C@@H](C)C(=O)OC(C)(C)C)Oc1ccccc1)CO` (stereo partly drawn) [6d, tert-Butyl ((((E)-4-Hydroxy-3-methylbut-2-en-1-yl)oxy)(phenoxy)phosphoryl)-L-alaninate], for which, in data set [1], the “degradation product (major metabolite) after incubation with cathepsin A” value is “phosphate group masked with the aryl motif and the amino acid ester moiety”.

For the molecule `C/C(=C\COP(=O)(N[C@@H](C)C(=O)OC(C)(C)C)Oc1ccccc1)CO[Si](C)(C)C(C)(C)C` (stereo partly drawn) [5d, tert-Butyl ((((E)-4-((tert-Butyldimethylsilyl)oxy)-3-methylbut-2-en-1-yl)oxy)(phenoxy)phosphoryl)-L-alaninate], in the data set on Vγ9/Vδ2 T-cells, the “EC50, activation of Vγ9/Vδ2 T-cells” value is reported as “low nanomolar activation”. Moreover, in the data set on PBMC, the “ED50” value is above 100 µM.

`O.O=P(O)(O)C(O)(Cn1ccnc1)P(=O)(O)O` [Zoledronate]: the “ED50” value with PBMC is above 100 µM. For the same molecule, the “specific lysis/killing of T24 cells by Vγ9/Vδ2 T cells (in words)” value in data set [2] is listed as “only a marginal increase”.

With `COC(=O)[C@H](C)NP(=O)(OC/C=C(\C)CO[Si](C)(C)C(C)(C)C)Oc1ccccc1` (stereo partly drawn) [5a, Methyl ((((E)-4-((tert-Butyldimethylsilyl)oxy)-3-methylbut-2-en-1-yl)oxy)(phenoxy)phosphoryl)-L-alaninate], in the data set on Vγ9/Vδ2 T-cells, the “EC50, activation of Vγ9/Vδ2 T-cells” value is given as “low nanomolar activation”.

Take `C/C(=C\COP(=O)(N[C@@H](C)C(=O)OC(C)C)Oc1ccccc1)CO[Si](C)(C)C(C)(C)C` (stereo partly drawn) [5c, Isopropyl ((((E)-4-((tert-Butyldimethylsilyl)oxy)-3-methylbut-2-en-1-yl)oxy)(phenoxy)phosphoryl)-L-alaninate]: the “EC50, activation of Vγ9/Vδ2 T-cells” value with Vγ9/Vδ2 T-cells is recorded as “low nanomolar activation”.
